Assay results taken from PubChem BioAssay AID248 (DTP/NCI, 2004).
Toxic doses and inconclusive results are not listed.

Tested on: L1210 leukemia ip in BDF1 mice, survival T/C
Experiment: NCI In Vivo Anticancer Drug Screen. Data for tumor model L1210 Leukemia (intraperitoneal) in B6D2F1 (BDF1) mice
Conditions: endpoint: mean survival time, higher = longer survival
Procedure, shortened: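 Tumor cells were implanted, animals were treated, and survival was followed. The result divides the treated measurement by the vehicle-control measurement.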

[1] = dose: 100.0 mg/kg/injection, schedule: Q04DX003 (ip), vehicle: saline
[2] = dose: 200.0 mg/kg/injection, schedule: Q04DX003 (ip), vehicle: saline
[3] = dose: 400.0 mg/kg/injection, schedule: Q04DX003 (ip), vehicle: saline
[4] = dose: 100.0 mg/kg/injection, schedule: Q04DX003 (ip), vehicle: saline with Tween-80
[5] = dose: 200.0 mg/kg/injection, schedule: Q04DX003 (ip), vehicle: saline with Tween-80
[6] = dose: 400.0 mg/kg/injection, schedule: Q04DX003 (ip), vehicle: saline with Tween-80
[7] = dose: 75.0 mg/kg/injection, schedule: Q01DX001 (ip), vehicle: saline
[8] = dose: 200.0 mg/kg/injection, schedule: Q01DX001 (ip), vehicle: carboxymethylcellulose (CMC)
[9] = dose: 400.0 mg/kg/injection, schedule: Q01DX001 (ip), vehicle: carboxymethylcellulose (CMC)
[10] = dose: 100.0 mg/kg/injection, schedule: Q01DX001 (ip), vehicle: saline
[11] = dose: 200.0 mg/kg/injection, schedule: Q01DX001 (ip), vehicle: saline
[12] = dose: 100.0 mg/kg/injection, schedule: Q01DX001 (ip), vehicle: carboxymethylcellulose (CMC)
[13] = dose: 50.0 mg/kg/injection, schedule: Q01DX001 (ip), vehicle: carboxymethylcellulose (CMC)
[14] = dose: 100.0 mg/kg/injection, schedule: Q04DX002 (ip), vehicle: Klucel (hydroxypropylcellulose) (HPC)
[15] = dose: 200.0 mg/kg/injection, schedule: Q04DX002 (ip), vehicle: Klucel (hydroxypropylcellulose) (HPC)
[16] = dose: 400.0 mg/kg/injection, schedule: Q04DX002 (ip), vehicle: Klucel (hydroxypropylcellulose) (HPC)

BrCC(Br)C(Br)CBr (stereo not drawn)
T/C (dose: 100.0 mg/kg/injection, schedule: Q01DX009 (ip), vehicle: saline): 93 % of control
T/C [1]: 113 % of control
T/C (dose: 200.0 mg/kg/injection, schedule: Q01DX009 (ip), vehicle: saline): 97 % of control
T/C [2]: 108 % of control
T/C (dose: 400.0 mg/kg/injection, schedule: Q01DX009 (ip), vehicle: saline): 93 % of control
T/C [3]: 98 % of control

CCCCCCn1c2ccccc2c2cc3cnccc3c(C)c21
T/C (dose: 37.5 mg/kg/injection, schedule: Q04DX003 (ip), vehicle: Klucel (hydroxypropylcellulose) (HPC)): 97 % of control
T/C (dose: 75.0 mg/kg/injection, schedule: Q04DX003 (ip), vehicle: Klucel (hydroxypropylcellulose) (HPC)): 97 % of control
T/C (dose: 150.0 mg/kg/injection, schedule: Q04DX003 (ip), vehicle: Klucel (hydroxypropylcellulose) (HPC)): 102 % of control
T/C (dose: 300.0 mg/kg/injection, schedule: Q04DX003 (ip), vehicle: Klucel (hydroxypropylcellulose) (HPC)): 104 % of control

ON=C1CCC(CC2CCCCC2)CC1 (stereo not drawn)
T/C [4]: 95 % of control
T/C [5]: 100 % of control
T/C [6]: 101 % of control

CC(C)CC(CC(C)C)NC(C)COC(=O)c1ccc(N)cc1 (stereo not drawn)
T/C [7]: 96 % of control

O=CCc1ccc2c(c1)OCO2
T/C [8]: 92 % of control
T/C [9]: 108 % of control

Cc1ccc(C(=O)C(F)(F)F)cc1
T/C [4]: 96 % of control
T/C [5]: 102 % of control

O=C(OC1COC(O)C(OC(=O)c2ccccc2)C1OC(=O)c1ccccc1)c1ccccc1 (stereo not drawn)
T/C (dose: 100.0 mg/kg/injection, schedule: Q01DX001 (ip), vehicle: saline with Tween-80): 101 % of control
T/C (dose: 200.0 mg/kg/injection, schedule: Q01DX001 (ip), vehicle: saline with Tween-80): 93 % of control

N#CC(Cc1ccccc1)c1ccccc1 (stereo not drawn)
T/C (dose: 50.0 mg/kg/injection, schedule: Q01DX001 (ip), vehicle: saline): 97 % of control
T/C [10]: 106 % of control
T/C [11]: 101 % of control

CCN(Cc1ccccc1)C(=S)[S-].CCN(Cc1ccccc1)C(=S)[S-].[Zn]
T/C [1]: 91 % of control
T/C [2]: 94 % of control
T/C [3]: 89 % of control

CCC(O)c1ccc2ccccc2c1 (stereo not drawn)
T/C [12]: 98 % of control
T/C [8]: 98 % of control
T/C [9]: 93 % of control

O=C(/C=C\c1ccc(/C=C/C(=O)Nc2cccc(C3=NCCCN3)c2)cc1)Nc1cccc(C2=NCCCN2)c1
T/C (dose: 0.62 mg/kg/injection, schedule: Q01DX Z (ip), vehicle: carboxymethylcellulose (CMC)): 117 % of control
T/C (dose: 5.0 mg/kg/injection, schedule: Q01DX Z (ip), vehicle: carboxymethylcellulose (CMC)): 225 % of control
T/C (dose: 12.5 mg/kg/injection, schedule: Q01DX Z (oral), vehicle: carboxymethylcellulose (CMC)): 103 % of control
T/C (dose: 25.0 mg/kg/injection, schedule: Q01DX Z (oral), vehicle: carboxymethylcellulose (CMC)): 103 % of control
T/C (dose: 50.0 mg/kg/injection, schedule: Q01DX Z (oral), vehicle: carboxymethylcellulose (CMC)): 102 % of control
T/C (dose: 100.0 mg/kg/injection, schedule: Q01DX Z (oral), vehicle: carboxymethylcellulose (CMC)): 97 % of control

CCC(=O)Nc1cccc(OC(=O)NC2CCCCC2)c1
T/C [4]: 102 % of control
T/C [5]: 98 % of control
T/C [6]: 91 % of control

CNC1C(O)C(OC2C(N)CC(N)C(OC3OC(CN)=CCC3N)C2O)OCC1(C)O (stereo not drawn)
T/C (dose: 63.5 mg/kg/injection, schedule: Q04DX002 (ip), vehicle: saline with Tween-80): 90 % of control
T/C (dose: 125.0 mg/kg/injection, schedule: Q04DX002 (ip), vehicle: saline with Tween-80): 97 % of control
T/C (dose: 250.0 mg/kg/injection, schedule: Q04DX002 (ip), vehicle: saline with Tween-80): 87 % of control

CN(C)c1ccc(C(=O)NO)cc1
T/C (dose: 100.0 mg/kg/injection, schedule: Q01DX009 (ip), vehicle: Klucel (hydroxypropylcellulose) (HPC)): 97 % of control
T/C (dose: 200.0 mg/kg/injection, schedule: Q01DX009 (ip), vehicle: Klucel (hydroxypropylcellulose) (HPC)): 105 % of control
T/C (dose: 400.0 mg/kg/injection, schedule: Q01DX009 (ip), vehicle: Klucel (hydroxypropylcellulose) (HPC)): 100 % of control

C=CCC(C)(C)/C=N/N
T/C (dose: 37.5 mg/kg/injection, schedule: Q04DX003 (ip), vehicle: saline): 101 % of control
T/C (dose: 75.0 mg/kg/injection, schedule: Q04DX003 (ip), vehicle: saline): 102 % of control
T/C (dose: 150.0 mg/kg/injection, schedule: Q04DX003 (ip), vehicle: saline): 98 % of control

CCOC(=O)C1CC(=O)c2c1ccc1ccccc21 (stereo not drawn)
T/C (dose: 75.0 mg/kg/injection, schedule: Q01DX001 (ip), vehicle: other): 105 % of control
T/C (dose: 150.0 mg/kg/injection, schedule: Q01DX001 (ip), vehicle: other): 97 % of control
T/C (dose: 300.0 mg/kg/injection, schedule: Q01DX001 (ip), vehicle: other): 96 % of control

CCOc1ccc(N=Nc2c(C)nn(C(N)=S)c2-c2ccccc2)cc1
T/C (dose: 10.0 mg/kg/injection, schedule: Q01DX001 (ip), vehicle: saline): 103 % of control
T/C (dose: 20.0 mg/kg/injection, schedule: Q01DX001 (ip), vehicle: saline): 94 % of control
T/C (dose: 40.0 mg/kg/injection, schedule: Q01DX001 (ip), vehicle: saline): 88 % of control

Oc1[nH]c(=S)sc1/C=C1\C=Nc2ccccc21
T/C [13]: 90 % of control
T/C [12]: 92 % of control
T/C [8]: 90 % of control
T/C [9]: 90 % of control

O=C(C(Br)C(Br)c1ccccc1)C(Br)C(Br)c1ccccc1 (stereo not drawn)
T/C (dose: 100.0 mg/kg/injection, schedule: Q04DX003 (ip), vehicle: saline sonified): 101 % of control
T/C (dose: 200.0 mg/kg/injection, schedule: Q04DX003 (ip), vehicle: saline sonified): 105 % of control
T/C (dose: 400.0 mg/kg/injection, schedule: Q04DX003 (ip), vehicle: saline sonified): 97 % of control

O=C(SSC(=O)c1ccccc1)c1ccccc1
T/C [13]: 96 % of control
T/C [12]: 94 % of control
T/C [8]: 90 % of control
T/C [9]: 107 % of control

CCN(CC)CCCNC(c1ccc(OC)c(OC)c1)C(Cl)(Cl)Cl (stereo not drawn)
T/C [7]: 98 % of control
T/C (dose: 150.0 mg/kg/injection, schedule: Q01DX001 (ip), vehicle: saline): 91 % of control

O=C(Nc1ccc(Cl)cc1)Nc1ccc([N+](=O)[O-])cc1[N+](=O)[O-]
T/C [14]: 111 % of control
T/C [15]: 108 % of control
T/C [16]: 108 % of control

Cc1nc(N)nc(N)c1-c1ccccc1
T/C [12]: 100 % of control
T/C [8]: 94 % of control
T/C [9]: 92 % of control

O=C1C=Cc2ccccc2C1=O
T/C (dose: 0.78 mg/kg/injection, schedule: Q01DX001 (ip), vehicle: Klucel (hydroxypropylcellulose) (HPC)): 103 % of control
T/C (dose: 1.56 mg/kg/injection, schedule: Q01DX001 (ip), vehicle: Klucel (hydroxypropylcellulose) (HPC)): 95 % of control
T/C (dose: 3.13 mg/kg/injection, schedule: Q01DX001 (ip), vehicle: Klucel (hydroxypropylcellulose) (HPC)): 88 % of control

CCOC(=O)c1cc(C(=O)O)[nH]c(=O)c1C#N
T/C [4]: 97 % of control
T/C [6]: 95 % of control

Cc1cc(C)c(S(=O)(=O)N=[N+]=[N-])c(C)c1
T/C [10]: 101 % of control
T/C [11]: 103 % of control
T/C (dose: 400.0 mg/kg/injection, schedule: Q01DX001 (ip), vehicle: saline): 97 % of control

N#Cc1ccsc1C#N
T/C (dose: 100.0 mg/kg/injection, schedule: Q04DX003 (ip), vehicle: acetone): 109 % of control

CCOC(=O)Nc1cccc([N+](=O)[O-])c1
T/C (dose: 100.0 mg/kg/injection, schedule: Q04DX003 (ip), vehicle: other): 93 % of control
T/C (dose: 200.0 mg/kg/injection, schedule: Q04DX003 (ip), vehicle: other): 102 % of control
T/C (dose: 400.0 mg/kg/injection, schedule: Q04DX003 (ip), vehicle: other): 91 % of control

NC(=O)NC(=O)NC(N)=O
T/C [14]: 94 % of control
T/C [15]: 102 % of control
T/C [16]: 102 % of control

O=C(Cc1ccccc1)Nc1ccc(Cl)c(Cl)c1
T/C [14]: 100 % of control
T/C [15]: 100 % of control
T/C [16]: 96 % of control

COC(=O)c1cc2c(s1)C(=O)c1ccccc1-2
T/C (dose: 100.0 mg/kg/injection, schedule: Q04DX003 (ip), vehicle: Klucel (hydroxypropylcellulose) (HPC)): 104 % of control
T/C (dose: 200.0 mg/kg/injection, schedule: Q04DX003 (ip), vehicle: Klucel (hydroxypropylcellulose) (HPC)): 94 % of control
T/C (dose: 400.0 mg/kg/injection, schedule: Q04DX003 (ip), vehicle: Klucel (hydroxypropylcellulose) (HPC)): 105 % of control
